Data taken from patent US5563125A, “5'-deoxy-5'-(substituted)alkylthioribose compounds and their pharmaceutical compositions” (priority 1992, dated 1996).

Tests used:
[1] = test system: L5178Y cells (MTA phosphorylase-containing); assay: Growth inhibition of L5178Y cells; assay type: cell-based, mouse; settings: Mus musculus, 48 h
Experimental: (§1) L1210, L5178Y and MOLT-4 cell lines were grown in RPMI 1640 and 10% Nu Serum (Collaborative Research Inc., Lexington, Mass.) and CCRF-CEM cells were grown in 10% Horse Serum (Gibco Laboratories, Grand Island, N.Y.) and maintained as previously described for suspension cultures by Pera et al. in Cancer Res. 46, 1148, 1986. Cell cultures (0.3×10^5 cells/ml) were treated with each compound at 0.1 to 1000 μM to determine the concentration that inhibited growth by 50% (IC50) at 48 hr for the L1210 and L5178Y cells and at 96 hr for the CCRF-CEM and MOLT-4 cells. The incubation times allowed approximately 4 cell doublings in each cell line. All compounds were freshly prepared prior to treatment by dissolving in DMSO and diluting in serum-free media. Cells were counted by electron particle counting (Model XF' Coulter Counter; Coulter Electronics, Hialeah, Fla.).
(§2) For each compound, the concentrations required to inhibit cell growth by 50% (IC50 values) are shown in Table 7 for two murine leukemic cell lines, L1210 and L5178Y [MTA phosphorylase-deficient and MTA phosphorylase-containing, respectively] and two human leukemic cell lines, CCRF-CEM and MOLT-4 [MTA phosphorylase-deficient and MTA phosphorylase-containing, respectively]. ETA, MFETA, HETA and PTA had lower IC50 values in the L5178Y cells than in the L1210 cells. […] This differential is consistent with the possibility that, in L5178Y cells, MFETA is cleaved by MTA phosphorylase to the growth inhibitory metabolite, 5-monofluoroethylthioribose-1-phosphate (MFETR-1-P).

L1210 leukemic cells = assay: Antitumor effects in L1210 leukemic mice; assay type: in vivo, DBA/2N mice
Experimental: The antitumor effects of MFETA were evaluated in DBA/2N mice (Charles River) who received i.p. transplants of 10^6 L1210 leukemic cells or 10^6 L5178Y leukemic cells on day 0 according to protocols described previously by Bernacki et al., Cancer Res. 47, 799, 1987. The increase in life span (% ILS) of treated animals relative to untreated, tumor-bearing animals was used as the measure of their therapeutic effectiveness at specified dose regimens.
^a MFETA was administered i.p. on days 1, 2, 3, 4, 5 following i.p.
implantation of 10^6 tumor cells on day 0.
^b % ILS is the percentage of increase in life span.

STO-1 (human melanoma) = assay: In vitro evaluation, STO-1; assay type: cell-based; settings: STO-1, medium B, 72 hours
Experimental: (§3) In vitro evaluations of the compound 5'-deoxy-5'-(monofluoroethylthio) adenosine (MFETA) were performed using the materials and conditions described in Tables 9 and 10.
(§4) ^(a) Basal medium = RPMI 1640 + 20 mM HEPES + 2 mM Lglutamine
(§5) B = 5% FCS + 5% NuSerum IV

[2] = target: T1, T. b. brucei MTA phosphorylase (Trypanosoma brucei, UniProt Q57XS4); assay: T. b. brucei MTA phosphorylase substrate assay; assay type: biochemical; settings: relative to MTA
T1 construct: MTA or analogs as substrates
T1 sequence (Q57XS4 entry or part of it): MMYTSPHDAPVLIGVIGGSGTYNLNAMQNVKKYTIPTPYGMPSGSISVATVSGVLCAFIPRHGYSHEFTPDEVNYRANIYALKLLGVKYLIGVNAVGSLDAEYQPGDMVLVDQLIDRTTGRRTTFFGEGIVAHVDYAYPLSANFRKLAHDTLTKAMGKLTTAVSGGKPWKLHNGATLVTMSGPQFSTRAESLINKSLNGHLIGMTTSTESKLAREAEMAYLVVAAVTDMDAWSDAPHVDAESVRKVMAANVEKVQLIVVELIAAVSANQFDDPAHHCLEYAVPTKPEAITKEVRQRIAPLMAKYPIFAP
Experimental: ^a MTA phosphorylase was assayed according to Ghoda et al., using 200
μM MTA (saturating) or analogs as substrates. Specific activities of
the dialyzed enzyme preparations were with 50 mM PO4, 104.97 n
moles/mg protein/h; without PO4, 28.27 n moles/mg protein/h. Results
are expressed as percent activity compared to as substrate with and
without PO4, respectively.

[3] = test system: CCRF-CEM cells (MTA phosphorylase-deficient); assay: Growth inhibition of CCRF-CEM cells; assay type: cell-based, human; settings: Homo sapiens, 96 h
Experimental: as §1, §2

[4] = test system: A121 (human ovarian carcinoma); assay: In vitro evaluation, A121; assay type: cell-based; settings: A121, medium B, 72 hours, solvent DMSO
Experimental: as §3
(a) Basal medium + RPMI 1640 + 20 mM HEPES;
B--5% NuSerum IV + 5% FCS,
*Incubation or exposure time is determined by the doubling time of the
cell line such that each is exposed to the compound for 3-4 cell

HO (human melanoma) = assay: In vitro evaluation, HO; assay type: cell-based; settings: medium B, 72 hours
Experimental: as §3, §4, §5

[5] = target: T2, Mouse Liver MTA Phosphorylase (Mus musculus, UniProt Q9CQ65); assay: Mouse liver MTA phosphorylase substrate/inhibitor assay; assay type: biochemical
T2 sequence (Q9CQ65 1-283): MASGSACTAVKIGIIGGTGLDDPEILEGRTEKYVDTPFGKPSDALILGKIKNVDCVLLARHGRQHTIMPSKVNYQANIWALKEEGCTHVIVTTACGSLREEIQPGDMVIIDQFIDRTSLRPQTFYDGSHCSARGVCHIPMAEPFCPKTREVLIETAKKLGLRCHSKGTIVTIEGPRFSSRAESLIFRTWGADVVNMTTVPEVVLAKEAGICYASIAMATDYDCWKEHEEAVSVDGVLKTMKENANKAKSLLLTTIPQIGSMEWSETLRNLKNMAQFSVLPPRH
Experimental: ^a MTA phosphorylase activity was assayed as described in Sufrin et

[6] = test system: MOLT-4 cells (MTA phosphorylase-containing); assay: Growth inhibition of MOLT-4 cells; assay type: cell-based, human; settings: Homo sapiens, MOLT-4, 96 h
Experimental: as §1, §2

SMILES: Nc1ncnc2c1ncn2[C@@H]1O[C@H](CSCCF)[C@@H](O)[C@H]1O [MFETA, 5'-deoxy-5'-(monofluoroethylthio)adenosine]
- IC50 [1]: 60 ± 35 µM
- % ILS (percentage of increase in life span) (L1210 leukemic cells; L1210, 10 mg/kg i.p. days 1-5): 14%
- Mean Death Weight (L1210 leukemic cells; L1210, 10 mg/kg i.p. days 1-5): 23.7 g
- Survival Mean ± SD (L1210 leukemic cells; L1210, 10 mg/kg i.p. days 1-5): 7.2 ± 0.5 days
- Survival Median (L1210 leukemic cells; L1210, 10 mg/kg i.p. days 1-5): 8 days
- Survival Range (L1210 leukemic cells; L1210, 10 mg/kg i.p. days 1-5): 6 to 8 days
- % ILS (percentage of increase in life span) (L1210 leukemic cells; L1210, 50 mg/kg i.p. days 1-5): 14%
- Mean Death Weight (L1210 leukemic cells; L1210, 50 mg/kg i.p. days 1-5): 24.5 g
- Survival Mean ± SD (L1210 leukemic cells; L1210, 50 mg/kg i.p. days 1-5): 7.8 ± 0.2 days
- Survival Median (L1210 leukemic cells; L1210, 50 mg/kg i.p. days 1-5): 8 days
- Survival Range (L1210 leukemic cells; L1210, 50 mg/kg i.p. days 1-5): 7 to 8 days
- % ILS (percentage of increase in life span) (L1210 leukemic cells; L1210, 100 mg/kg i.p. days 1-5): 14%
- Mean Death Weight (L1210 leukemic cells; L1210, 100 mg/kg i.p. days 1-5): 22.8 g
- Survival Mean ± SD (L1210 leukemic cells; L1210, 100 mg/kg i.p. days 1-5): 7.9 ± 0.2 days
- Survival Median (L1210 leukemic cells; L1210, 100 mg/kg i.p. days 1-5): 8 days
- Survival Range (L1210 leukemic cells; L1210, 100 mg/kg i.p. days 1-5): 7 to 9 days
- % ILS (percentage of increase in life span) (L1210 leukemic cells; L1210, 200 mg/kg i.p. days 1-5): 28%
- Mean Death Weight (L1210 leukemic cells; L1210, 200 mg/kg i.p. days 1-5): 18.4 g
- Survival Mean ± SD (L1210 leukemic cells; L1210, 200 mg/kg i.p. days 1-5): 8.8 ± 0.8 days
- Survival Median (L1210 leukemic cells; L1210, 200 mg/kg i.p. days 1-5): 9 days
- Survival Range (L1210 leukemic cells; L1210, 200 mg/kg i.p. days 1-5): 6 to 11 days
- % ILS (percentage of increase in life span) (L1210 leukemic cells; L1210, 300 mg/kg i.p. days 1-5): -72%
- Mean Death Weight (L1210 leukemic cells; L1210, 300 mg/kg i.p. days 1-5): 18.8 g
- Survival Mean ± SD (L1210 leukemic cells; L1210, 300 mg/kg i.p. days 1-5): 2.2 ± 0.2 days
- Survival Median (L1210 leukemic cells; L1210, 300 mg/kg i.p. days 1-5): 2 days
- Survival Range (L1210 leukemic cells; L1210, 300 mg/kg i.p. days 1-5): 2 to 3 days
- IC50 (STO-1 (human melanoma)): 296 ± 9.9 µM
- Percent Control Activity ([2]; +50 mM PO4, 200 μM substrate): 75.3%
- Percent Control Activity ([2]; No PO4, 200 μM substrate): 109.1%
- IC50 [3]: 75 ± 20 µM
- IC50 [4]: 269 µM
- IC50 (HO (human melanoma)): 333 ± 5.9 µM
- Ki ([5]; mouse liver MTA phosphorylase, read-out: K1): 3.1 µM
- Substrate (% Control) ([5]; substrate activity relative to MTA): 64 % Control
- IC50 [6]: 10 ± 3 µM
